Experiments:
Colo205 cells = experiment: MTT antiproliferative assay, sensitive cells; type: cell-based, human; conditions: for IC50: Homo sapiens, COLO 205, sensitive Colo205, MTT, 72 h, mean ± SD; for SI (selectivity index) C/A: IC50 MRC-5 / IC50 Colo205
Method: (§1) The human colon adenocarcinoma cell lines Colo205 doxorubicin-sensitive (CCL-222, ATCC, Manassas, VA, USA) and the resistant Colo320/MDR-LRP expressing P-gp were purchased from LGC Promochem (Teddington, UK). The MRC-5 human embryonal lung fibroblast cell line (CCL-171, ATCC) was purchased from Sigma-Aldrich (Merck KGaA, Darmstadt, Germany). The human colon adenocarcinoma cells (Colo205 and Colo320) were cultured in an RPMI 1640 medium supplemented with 10% fetal bovine serum (FBS), 2 mM L-glutamine, 1 mM Na-pyruvate, and 100 mM HEPES. The semi-adherent human colon cancer cells were detached with a trypsin-Versene (EDTA) solution for 5 min at 37 °C. The MRC-5 human embryonal lung fibroblast cells were cultured in EMEM containing 4.5 g/L of glucose and supplemented with a non-essential amino acid mixture, a selection of vitamins, and 10% FBS. The cell lines were incubated at 37 °C, 5% CO2, and 95% air atmosphere.
(§2) The antiproliferative effect of the compounds was tested in decreasing serial dilutions of compounds (starting with 100 µM, then two-fold serial dilution) on human cell lines (Colo205, Colo320, and MRC-5) in 96-well flat-bottomed microtiter plates. Firstly, the compounds were diluted in 100 µL of the medium, and then 6 × 10^3 cells (Colo205 and Colo320), in 100 µL of medium, were added to each well, excluding the medium control wells. The MRC-5 adherent cell line was seeded in the EMEM medium for at least 4 h before the assay. The two-fold serial dilutions of the compounds were made in a separate plate (100–0.19 μM) and then transferred to the plates containing the adherent corresponding cell line. Culture plates were incubated at 37 °C for 72 h, and at the end of the incubation period, 20 μL of MTT (thiazolyl blue tetrazolium bromide) solution (from a 5 mg/mL stock solution) was added to each well and incubated for an additional 4 h. Then, 100 μL of sodium dodecyl sulfate (SDS) solution (10% SDS in 0.01 M HCl) was added to each well, and the plates were further incubated at 37 °C overnight in a CO2 incubator. Cell growth was determined by measuring the optical density (OD) at 540/630 nm with a Multiscan EX ELISA reader (Thermo Labsystems, Cheshire, WA, USA). […] IC50 values and the standard deviation (SD) of triplicate experiments were calculated by using GraphPad Prism 5 software for Windows. Doxorubicin (2 mg/mL, Teva Pharmaceuticals, Budapest, Hungary) was used as a positive control and the vehicle DMSO as the negative control. (1) IC50=[ODsample−ODmedium control/ODcell control−ODmedium control]×100
(§3) The relative resistance (RR) was calculated as the ratio of the IC50 value in the resistant cancer cells and the IC50 in the sensitive cancer cell lines. The selectivity indexes (SI) were calculated as the ratio of the IC50 values in the non-tumor cells and the IC50 in the cancer cell lines. The activity of the compounds toward cancer cells is considered strongly selective if the selectivity index (SI) value is higher than 6, moderately selective if 3 < SI < 6, slightly selective if 1 < SI < 3, and non-selective if SI is lower than 1.

MRC-5 cells = experiment: MTT antiproliferative assay, normal lung fibroblasts; type: cell-based; conditions: Homo sapiens, normal embryonal lung fibroblasts, 72 h, mean ± SD, read-out: IC50 MCR-5 (C)
Method: as §1, §2, §3

Colo320 cells [1] = experiment: MTT antiproliferative assay, resistant cells; type: cell-based, human; conditions: for IC50: Homo sapiens, COLO 320, resistant Colo320, MTT, 72 h, mean ± SD, read-out: IC50 Colo320 (B); for SI (selectivity index) C/B: IC50 MRC-5 / IC50 Colo320
Method: as §1, §2, §3

Colo320 cells [2] = experiment: Checkerboard drug combination assay with doxorubicin; type: cell-based, human; conditions: for Type of interaction: Colo320
Method: The interaction of lycorine (1) and some selected derivatives (2, 5, 9, 13, 16, 19, 25, and 26) in combination with the chemotherapeutic drug doxorubicin was performed by the checkerboard assay, a widely used technique for assessing drug interactions, in resistant human Colo320 colon adenocarcinoma cells. The type of drug–drug interaction was evaluated by using the Chou and Talalay method for drug combination and expressed using the combination index (CI) values, and therefore evaluated as synergism (CI < 1), additive (CI = 1), or antagonist (CI > 1).
Drug combination interactions between the compounds and the chemotherapeutic drug doxorubicin were assessed by the checkboard microplate assay on the resistant Colo320, expressing the P-gp transporter. Doxorubicin was serially diluted in the horizontal direction in 100 µL, starting with 8.6 µM, and the compounds were subsequently diluted in the vertical direction in 50 µL. The starting concentration was determined based on the IC50 values. The cells were resuspended in a culture medium and distributed into each well in 50 µL, containing 6 × 10^3 cells, to a final volume of 200 µL per well. The plates were incubated for 72 h at 37 °C in a CO2 incubator, and the cell growth was determined by the MTT staining method, as described previously. Drug interactions were evaluated using CompuSyn software to plot 4 or 5 data points for each ratio (ref software). The results were expressed in terms of combination index (CI) values of 50% growth inhibition, in which a CI value close to 1 indicates additivity, while a CI < 1 is defined as synergy, and a CI > 1 as antagonism.

Compound	IC50 (Colo205 cells) [µM]	IC50 (Colo320 cells [1]) [µM]	CI at IC50 (combination index) (Colo320 cells [2]; Colo320, 50% growth inhibition)	IC50 (MRC-5 cells) [µM]	SI (selectivity index) C/A (Colo205 cells)	SI (selectivity index) C/B (Colo320 cells [1])	Type of interaction (Colo320 cells [2])	RR (relative resistance ratio) B/A (Colo320 cells [1]; IC50 resistant Colo320 / IC50 sensitive Colo205)
O=C(NCCc1ccccc1)O[C@H]1C=C2CCN3Cc4cc5c(cc4[C@H]([C@@H]1O)[C@@H]23)OCO5 [Compound 10, lycorine 2-yl phenethylcarbamate]	> 100	> 100	–	> 100	–	–	–	–
O=C(NCc1ccccc1F)OC1C=C2CCN3Cc4cc5c(cc4C(C1O)C23)OCO5 (stereo not shown) [Compound 21, Lycorine 2-yl (2-fluorobenzyl)carbamate]	> 100	> 100	–	> 100	–	–	–	–
CN(Cc1ccccc1)C(=O)OC1C=C2CCN3Cc4cc5c(cc4C(C1O)C23)OCO5 (stereo not shown) [Compound 12, Lycorine 2-yl benzyl(methyl)carbamate]	> 100	> 100	–	> 100	–	–	–	–
O=C(OC1C=C2CCN3Cc4cc5c(cc4C(C1O)C23)OCO5)N1CCOCC1 (stereo not shown) [Compound 3, Lycorine 2-yl morpholine-4-carboxylate]	> 100	> 100	–	> 100	–	–	–	–
O=C(NCc1ccc2c(c1)OCO2)OC1C=C2CCN3Cc4cc5c(cc4C(C1O)C23)OCO5 (stereo not shown) [Compound 8, Lycorine 2-yl (piperonyl)carbamate]	> 100	> 100	–	> 100	–	–	–	–
O=C(OC1C=C2CCN3Cc4cc5c(cc4C(C1O)C23)OCO5)N1CCCCC1 (stereo not shown) [Compound 17, Lycorine 2-yl piperidine-1-carboxylate]	> 100	> 100	–	> 100	–	–	–	–
COc1ccc(CCNC(=O)OC2C=C3CCN4Cc5cc6c(cc5C(C2OC(=O)NCCc2ccc(OC)cc2)C34)OCO6)cc1 (stereo not shown) [Compound 4, Lycorine 1,2-diyl bis [(4-methoxyphenethyl)carbamate]]	> 100	> 100	–	> 100	–	–	–	–
COc1ccc(CNC(=O)OC2C=C3CCN4Cc5cc6c(cc5C(C2O)C34)OCO6)cc1 (stereo not shown) [Compound 11, Lycorine 2-yl (4-methoxylbenzyl)carbamate]	> 100	> 100	–	> 100	–	–	–	–
O=C(NCc1ccc(F)cc1)OC1C=C2CCN3Cc4cc5c(cc4C(C1OC(=O)NCc1ccc(F)cc1)C23)OCO5 (stereo not shown) [Compound 27, Lycorine 1,2-diyl bis[(4-fluorobenzyl)carbamate]]	> 100	> 100	–	> 100	–	–	–	–
O[C@H]1[C@H]2c3cc4c(cc3CN3CCC(=C[C@@H]1O)[C@H]23)OCO4 [Compound 1, lycorine]	1.06 ± 0.02	0.93 ± 0.01	–	3.04 ± 0.11	2.86	3.26	Moderate antagonism	0.87
O=C(OC1C=C2CCN3Cc4cc5c(cc4C(C1O)C23)OCO5)N1CCCC1 (stereo not shown) [Compound 15, Lycorine 2-yl pyrrolidine-1-carboxylate]	> 100	> 100	–	> 100	–	–	–	–
O=C(NCc1cccc(C(F)(F)F)c1)O[C@H]1[C@H]2c3cc4c(cc3CN3CCC(=C[C@@H]1OC(=O)NCc1cccc(C(F)(F)F)c1)[C@H]23)OCO4 [Compound 22, Lycorine 1,2-diyl bis[(3-(trifluoromethyl)benzyl)carbamate]]	> 100	> 100	–	> 100	–	–	–	–
CC(C)(C)c1ccc(CNC(=O)OC2C=C3CCN4Cc5cc6c(cc5C(C2OC(=O)NCc2ccc(C(C)(C)C)cc2)C34)OCO6)cc1 (stereo not shown) [Compound 18, Lycorine 1,2-diyl bis[(4-(tert-butyl)benzyl)carbamate]]	> 100	> 100	–	> 100	–	–	–	–
CCCNC(=O)OC1C=C2CCN3Cc4cc5c(cc4C(C1O)C23)OCO5 (stereo not shown) [Compound 30, Lycorine 2-yl propylcarbamate]	> 100	> 100	–	> 100	–	–	–	–
O=C(NCc1ccc(F)cc1)OC1C=C2CCN3Cc4cc5c(cc4C(C1O)C23)OCO5 (stereo not shown) [Compound 28, Lycorine 2-yl (4-fluorobenzyl)carbamate]	> 100	> 100	–	> 100	–	–	–	–
O=C(NCc1ccccc1F)OC1C=C2CCN3Cc4cc5c(cc4C(C1OC(=O)NCc1ccccc1F)C23)OCO5 (stereo not shown) [Compound 20, Lycorine 1,2-diyl bis[(2-fluorobenzyl)carbamate]]	> 100	> 100	–	> 100	–	–	–	–

Now from value to molecule, other results behind:

IC50 (Colo205 cells) [µM]	IC50 (Colo320 cells [1]) [µM]	CI at IC50 (combination index) (Colo320 cells [2]; Colo320, 50% growth inhibition)	Compound	IC50 (MRC-5 cells) [µM]	SI (selectivity index) C/A (Colo205 cells)	SI (selectivity index) C/B (Colo320 cells [1])	Type of interaction (Colo320 cells [2])	RR (relative resistance ratio) B/A (Colo320 cells [1]; IC50 resistant Colo320 / IC50 sensitive Colo205)
> 100	> 100	–	O=C(NCCc1ccc(F)cc1)OC1C=C2CCN3Cc4cc5c(cc4C(C1O)C23)OCO5 (stereo not shown) [Compound 24, Lycorine 2-yl (4-fluorophenethyl)carbamate]	> 100	–	–	–	–
> 100	> 100	–	O=C(NCc1ccccc1)OC1C=C2CCN3Cc4cc5c(cc4C(C1OC(=O)NCc1ccccc1)C23)OCO5 (stereo not shown) [Compound 32, Lycorine 1,2-diyl bis(benzylcarbamate)]	71.9 ± 5.38	–	–	–	–
> 100	> 100	–	O=C(OC1C=C2CCN3Cc4cc5c(cc4C(C1OC(=O)N1CCCC1)C23)OCO5)N1CCCC1 (stereo not shown) [Compound 14, Lycorine 1,2-diyl bis(pyrrolidine-1-carboxylate)]	> 100	–	–	–	–
> 100	> 100	–	O=C(NCCc1ccc(F)cc1)OC1C=C2CCN3Cc4cc5c(cc4C(C1OC(=O)NCCc1ccc(F)cc1)C23)OCO5 (stereo not shown) [Compound 23, Lycorine 1,2-diyl bis[(4-fluorophenethyl) carbamate]]	3.79 ± 0.21	<0.037	<0.037	–	–
55.4 ± 1.63	26.6 ± 1.37	0.57	O=C(OC1C=C2CCN3Cc4cc5c(cc4C(C1OC(=O)N1CCCCC1)C23)OCO5)N1CCCCC1 (stereo not shown) [Compound 16, Lycorine 1,2-diyl bis(piperidine-1-carboxylate)]	59.2 ± 4.82	1.06	2.22	Synergism	–
> 100	> 100	–	O=C(NCc1ccc2c(c1)OCO2)OC1C=C2CCN3Cc4cc5c(cc4C(C1OC(=O)NCc1ccc4c(c1)OCO4)C23)OCO5 (stereo not shown) [Compound 7, Lycorine 1,2-diyl bis[(piperonyl)carbamate]]	> 100	–	–	–	–
> 100	> 100	–	Cc1ccc(CNC(=O)OC2C=C3CCN4Cc5cc6c(cc5C(C2O)C34)OCO6)cc1 (stereo not shown) [Compound 6, Lycorine 2-yl (4-methylbenzyl)carbamate]	> 100	–	–	–	–
> 100	> 100	–	CCCNC(=O)OC1C=C2CCN3Cc4cc5c(cc4C(C1OC(=O)NCCC)C23)OCO5 (stereo not shown) [Compound 29, Lycorine 1,2-diyl bis(propylcarbamate)]	> 100	–	–	–	–

Source: article PMC9916770, “Lycorine Carbamate Derivatives for Reversing P-glycoprotein-Mediated Multidrug Resistance in Human Colon Adenocarcinoma Cells” (International Journal of Molecular Sciences, 2023)
